Measurements taken from publication PMC6280737, “Modification Targeting the “Rana Box” Motif of a Novel Nigrocin Peptide From Hylarana latouchii Enhances and Broadens Its Potency Against Multiple Bacteria” (Frontiers in Microbiology, 2018).
Where a SMILES comes first, the peptide text is derived from it.

Assays:
[1] = system: C. albicans (NCYC1467); assay type: cell-based, Candida albicans; conditions: for MIC: NCYC1467, 16 h; for MBC: NCYC1467, 18 h
Method: (§1) The antimicrobial activity of both natural and designed peptides was evaluated by MIC and MBC assays utilizing the broth dilution method. Microorganisms including S. aureus (NCTC10788), MRSA (NCTC 12493 and ATCC43300), Escherichia coli (E. coli) (NCTC 10418), Pseudomonas aeruginosa (P. aeruginosa) (ATCC 27853), Candida albicans (C. albicans) (NCYC 1467) and four clinical MRSA strains (DTMR8, DTMR24, DTMR37, and DTMR121) obtained at the First People’s Hospital of Zhenjiang, China were used. Molecular identification of these four clinical isolates was performed by PCR targeting mecA gene prior to use. After incubation of peptides (ranging from 1 μM to 512 μM, twofold serial dilution) and diluted microorganism cultures for 16 h, the absorbance values of the wells of the 96-well plates were detected at 550 nm with a Synergy HT plate reader (Biotech, United States) and the MICs were defined as the lowest concentration of peptides at which no apparent growth was detected. Ten microliters of culture in the wells were loaded onto Mueller-Hinton agar (MHA) medium and incubated at 37°C for another 18 h. The MBC of the peptide against a microbe was defined as the lowest concentration at which no evidence of colony growth was observed. Five replications were employed for all peptides with different concentrations and controls, and all measurements were made in triplicate.

[2] = system: S. aureus (NCTC10788); assay type: cell-based, Staphylococcus aureus; conditions: for MIC: NCTC10788, 16 h; for MBC: NCTC10788, 18 h
Method: as §1

[3] = system: E. coli (NCTC10418); assay type: cell-based, Escherichia coli; conditions: for MIC: NCTC10418, 16 h
Method: as §1

[4] = system: mature MRSA biofilm; assay type: cell-based, methicillin-resistant S. aureus
Method: Minimum biofilm eradication concentration (MBEC) assay was carried out with a modified microtiter plate method as described previously ([Gao et al., 2017]).
FIGURE 4 Minimum biofilm eradication concentration (MBEC) of peptides against mature MRSA biofilm. All data represent means ± SD from three independent experiments performed in triplicate (^∗∗∗∗P < 0.0001 versus the viability of the corresponding concentration of nigrocin-HL).

[5] = system: BALB/c mice; assay: In vivo acute toxicity, 7-day mortality; conditions: single i.p. injection
Method: Mice were administered with 20.0 and 40 mg/kg of nigrocin-HL and nigrocin-HLM (i.p.) and a 7-day mortality was recorded.
(§2) FIGURE 5 Toxicities of nigrocin-HL and its analog nigrocin-HLM in vitro and in vivo. Cytotoxicity of nigrocin-HL and nigrocin-HLM against (A) HaCaT and (B) 16HBE. Living cells after treatment with peptides were measured utilizing CCK8 assays, and viability was calculated relative to the untreated control. (C) Hemolysis of nigrocin-HL and nigrocin-HLM was determined against horse erythrocytes. All data represent mean ± SD from three independent experiments performed in triplicate (^∗P < 0.05, ^∗∗∗P < 0.001, compared with nigrocin-HL control group; ^###P < 0.001, compared with nigrocin-HLM control group). (D) In vivo toxicities of these two AMPs. Survival rate of mice in 7 days after single i.p. injection of nigrocin-HL and nigrocin-HLM (20 and 40 mg/kg) was recorded.

[6] = system: horse erythrocytes; assay type: cell-based
Method: Hemolytic property of peptides was measured using erythrocytes prepared from defibrinated horse blood (TCS Biosciences, Botolph Claydon, Buckingham, United Kingdom) as indicated previously ([Wu et al., 2016]).
as §2

[7] = Circular dichroism, percentage of α-helix by K2D3; assay type: physicochemical; conditions: CD 190-250 nm, 20°C, 50% TFE in 10 mM ammonium acetate buffer, 100 μM peptide (legend: 50 μM)
Method: Additionally, circular dichroism (CD) analyses were carried out utilizing a JASCO J815 Spectropolarimeter (JASCO Inc., United States). Samples were measured within the range of 190-250 nm at 20°C. The parameters were set as: 200 nm/min scanning speed, a bandwidth of 1 nm, and 0.5 nm data pitch. Both peptide samples were dissolved in […] ammonium acetate buffer and 50% TFE in 10 mM ammonium acetate buffer at a concentration of 100 μM. The percentage of the α-helix structure was predicted by the website […]^2 ([Louis-Jeune et al., 2012]).

[8] = system: human keratinocyte cell line HaCaT; assay type: cell-based
Method: (§3) Human keratinocyte cell line HaCaT and human bronchial epithelial cell line 16HBE were obtained from the ATCC. Cells were harvested and diluted to 5 × 10^4 cells/ml using fresh medium. Ninety-nine microliters of diluted cells and 1 μl of peptides (final concentration ranging from 1 to 512 μM, twofold serial dilution, five duplicates) were mixed and seeded into 96-well culture plates. After incubation for 24 h, 10 μl CCK-8 was added into each well, followed by incubation at 37°C for 2 h. Absorbance of each well was determined, and the viabilities of cells were calculated as percentages of the control.
as §2

[9] = system: human bronchial epithelial cell line 16HBE; assay type: cell-based
Method: as §3, §2

[10] = system: P. aeruginosa (ATCC27853); assay type: cell-based, Pseudomonas aeruginosa
Method: as §1

[11] = system: MRSA (ATCC43300); assay type: cell-based, methicillin-resistant S. aureus
Method: as §1

[12] = system: clinical MRSA strain DTMR24; assay type: cell-based, methicillin-resistant S. aureus
Method: as §1

[13] = system: clinical MRSA strain DTMR8; assay type: cell-based, methicillin-resistant S. aureus
Method: as §1

[14] = system: clinical MRSA strain DTMR37; assay type: cell-based, methicillin-resistant S. aureus
Method: as §1

[15] = system: MRSA (NCTC12493); assay type: cell-based, methicillin-resistant S. aureus; conditions: NCTC12493, 16 h
Method: as §1

[16] = system: clinical MRSA strain DTMR121; assay type: cell-based, methicillin-resistant S. aureus
Method: as §1

SMILES | MIC [1] [µg/mL] | MBC [1] [µg/mL] | MIC [2] [µg/mL] | MBC [2] [µg/mL] | MIC [3] [µg/mL] | MBEC [4] [µM] | 7-day mortality ([5]; 20 mg/kg) | 7-day mortality ([5]; 40 mg/kg) | hemolytic activity (in words) [6] | lowest dosage at which cell growth inhibition occurred [8] [µM] | lowest dosage at which cell growth inhibition occurred [9] [µM] | further results
CC[C@H](C)[C@H](NC(=O)CNC(=O)[C@H](CO)NC(=O)[C@H](CC(C)C)NC(=O)[C@H](CC(C)C)NC(=O)CN)C(=O)N[C@@H](CC(C)C)C(=O)NCC(=O)N[C@@H](C)C(=O)NCC(=O)N[C@@H](CCCCN)C(=O)N[C@@H](CCCCN)C(=O)N[C@H](C(=O)N[C@H](C(=O)O)C(C)C)[C@@H](C)CC [Nigrocin-HLD] (H-GLLSGILGAGKKIV-OH; N-terminus and C-terminus assumed) | 42.43 | 339.46 | 42.43 | 169.73 | 84.87 | – | – | – | – | – | – | –
CC[C@H](C)[C@H](NC(=O)CNC(=O)[C@H](CO)NC(=O)[C@H](CC(C)C)NC(=O)[C@H](CC(C)C)NC(=O)CN)C(=O)N[C@@H](CC(C)C)C(=O)NCC(=O)N[C@@H](C)C(=O)NCC(=O)N[C@@H](CCCCN)C(=O)N[C@@H](CCCCN)C(=O)N[C@H](C(=O)N[C@H](C(=O)N[C@H]1CSSC[C@@H](C(=O)O)NC(=O)[C@H](CC(C)C)NC(=O)CNC(=O)[C@H](CO)NC(=O)[C@H](CC(C)C)NC(=O)CNC1=O)C(C)C)[C@@H](C)CC [Nigrocin-HL] (HELM PEPTIDE1{G.L.L.S.G.I.L.G.A.G.K.K.I.V.C.G.L.S.G.L.C}$PEPTIDE1,PEPTIDE1,15:R3-21:R3$$$V2.0; N-terminus and C-terminus assumed) | 62.70 | 501.61 | 62.70 | 250.81 | 125.40 | > 16 | mice all died from day 3 to day 7 | mice all died from day 3 to day 7 | obvious hemolysis | 32 | 32 | Helicity (%) [7]: 31.28%
CC[C@H](C)[C@H](NC(=O)CNC(=O)[C@H](CO)NC(=O)[C@H](CC(C)C)NC(=O)[C@H](CC(C)C)NC(=O)CN)C(=O)N[C@@H](CC(C)C)C(=O)NCC(=O)N[C@@H](C)C(=O)NCC(=O)N[C@@H](CCCCN)C(=O)N[C@@H](CCCCN)C(=O)N[C@H](C(=O)N[C@H](C(=O)N[C@@H](Cc1ccccc1)C(N)=O)C(C)C)[C@@H](C)CC [Nigrocin-HLM] (H-GLLSGILGAGKKIVF-NH2) | 2.94 | 5.89 | 2.94 | 5.89 | 11.77 | 8 | no mortality was observed | no mortality was observed | negligible hemolytic activity | > 512 | > 512 | concentration up to which devoid of hemolytic activity [6]: > 128 µM; MBC ([3]; NCTC10418, 18 h): 23.55 µg/mL; MIC ([10]; ATCC27853, 16 h): 32 µM; MBC ([10]; ATCC27853, 18 h): 32 µM; MIC ([11]; ATCC43300, 16 h): 1 µM; MBC ([11]; ATCC43300, 18 h): 5.89 µg/mL; MIC ([12]; clinical strain DTMR24, 16 h): 1 µM; MBC ([12]; clinical strain DTMR24, 18 h): 1.47/1.47 mg/l; MIC ([13]; clinical strain DTMR8, 16 h): 1 µM; MBC ([13]; clinical strain DTMR8, 18 h): 2.94 µg/mL; MIC ([14]; clinical strain DTMR37, 16 h): 1 µM; MBC ([14]; clinical strain DTMR37, 18 h): 2.94 µg/mL; MIC [15]: 4 µM; MIC ([16]; clinical strain DTMR121, 16 h): 1 µM; MBC ([16]; clinical strain DTMR121, 18 h): 1.47/1.47 mg/l
